Reference: patent US20200087248A1, “Fluoroallylamine Derivative And Use Thereof” (SICHUAN KELUN-BIOTECH BIOPHARMACEUTICAL CO., LTD., priority 2017, published 2020)
Structures can show the parent of a compound that is named as a salt. Where two headings read alike, the source gives them in different places.

How the values were obtained:
[1] = target: T1, VAP-1 in abdominal fat of mice (Mus musculus, UniProt O70423); assay: Inhibition of VAP-1 enzymatic activity at different dose and time conditions (ex-vivo); type: in vivo, BALBc mice; conditions: for Inhibition rate against the enzymatic activity of VAP-1 in abdominal fat of mice: hydrochloride; for inhibition at 0.5 mg/kg / inhibition at 3 mg/kg: mouse, po, read-out: Inhibition rate against the enzymatic activity of VAP-1 in abdominal fat of mice
T1 construct: abdominal fat was collected and homogenized; from tissue; host or cells: abdominal fat of BALBc mice (homogenate supernatant)
T1 sequence (O70423 1-765): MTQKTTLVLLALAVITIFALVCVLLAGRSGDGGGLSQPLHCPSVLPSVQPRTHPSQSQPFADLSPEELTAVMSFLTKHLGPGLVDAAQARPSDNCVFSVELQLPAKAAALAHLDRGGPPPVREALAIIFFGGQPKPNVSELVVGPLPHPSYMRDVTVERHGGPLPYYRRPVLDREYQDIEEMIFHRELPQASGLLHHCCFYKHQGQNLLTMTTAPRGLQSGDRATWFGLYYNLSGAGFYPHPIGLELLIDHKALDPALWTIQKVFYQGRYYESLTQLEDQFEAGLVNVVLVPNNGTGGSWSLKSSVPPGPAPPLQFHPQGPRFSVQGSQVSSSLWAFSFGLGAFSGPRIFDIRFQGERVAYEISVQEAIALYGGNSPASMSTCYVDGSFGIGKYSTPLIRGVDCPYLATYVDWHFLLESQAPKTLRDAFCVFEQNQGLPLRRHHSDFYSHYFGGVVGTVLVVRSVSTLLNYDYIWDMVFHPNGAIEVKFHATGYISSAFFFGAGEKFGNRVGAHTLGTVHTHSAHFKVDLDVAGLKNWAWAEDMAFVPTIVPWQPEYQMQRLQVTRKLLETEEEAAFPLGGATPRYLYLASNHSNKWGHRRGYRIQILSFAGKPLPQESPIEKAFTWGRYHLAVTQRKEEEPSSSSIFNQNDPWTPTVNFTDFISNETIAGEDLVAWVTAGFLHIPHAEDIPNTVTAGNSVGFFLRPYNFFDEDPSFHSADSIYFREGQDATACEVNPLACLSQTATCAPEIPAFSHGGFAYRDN
Protocol: Inhibition Experiment Against the Enzymatic Activity at Different Does and Time Conditions (ex-vivo)
Tissue homogenate buffer solution (20 mM HEPES, pH 7.2, 1 mM EDTA, 250 mM sucrose, PMSF 0.2 mM)
Reaction buffer solution: 50 mM PBS, pH 7.4
Test kit: Amplex® Red Monoamine Oxidase Assay, Manufacturer: ThermoFisher
BALBc mice were orally administrated with different doses (0.5 mg/kg, 3 mg/kg) of the test compound, and the vehicle group was used as the control group. Abdominal fat was collected at 6 hrs, 10 hrs, 24 hrs respectively, and homogenized with a pre-cooled homogenate buffer solution, and thereafter, the supernatant was collected and stored for use.
A test sample was diluted with the reaction buffer solution, and respectively added with the inhibition solution A 1 μM Clorgyline+1 μM pargylin, to inhibit the activities of MAO-A and MAO-B, and the inhibition solution B: 1 μM Clorgyline+1 μM Pargylin+1 μM Mofegiline as the Wank control, and after being incubated at room temperature, 500 μM benzylamine hydrochloride, 1 U/mL HRP and 200 μM Amplex Red reagent were added to start the reaction. By referring to the method in “Experiment of inhibiting the enzymatic activity of VAP-1”, the relative activities of each dose groups were calculated, wherein ratio of the fluorescent signal to reaction time in the linear range is the reaction rate, and the vehicle group is the positive control, thereby to study the inhibition of the compound against the enzymatic activity of VAP-1 in abdominal fat of mice.

[2] = Stability in liver microsomes, monkey; type: in vitro ADME
Protocol: Stability of Liver Microsomes
Formulation of a compound reservation solution: the test compound, diclofenac acid, testosterone and propafenone were weighted in appropriate amounts, and calibrated by adding about 1 mL of DMSO to provide a 10 mM reservation solution, then stored in a 4° C. refrigerator;
Formulation of a compound working solution: 10 μL of the reservation solution were added to 990 μL acetonitrile-water (1:1) to provide a middle solution having a concentration of 100 μM, and 120 μL of the middle solution is further diluted with 2880 μL PBS to provide a 4 μM working solution; […]
After being incubated for a certain period of time, an equivalent volume of cooled acetonitrile (4° C.) was added to terminate the reaction, and LC-MS/MS was used to determine the concentrations of the compound after being incubated in various liver microsomes for different time periods. With the incubation time as the horizontal ordinate and the natural logarithm of the percentages of the remained compound at each time point as the longitudinal coordinate, a diagram was plotted, wherein the slope was the velocity constant (Ke), and the half-life (T1/2) and clearance rate (CLliver) of the compound were calculated according to the following equation to evaluate the staiblity of the compound in the liver microsomes. […]

## CC1(C)Cc2cc(OC/C(=C/F)CN)ccc2C(=O)N1 [HC38-E, (E)-6-((2-(aminomethyl)-3-fluoroallyl)oxy)-3,3-dimethyl-3,4-dihydroisoquinolin-1(2H)-one hydrochloride]
[1]; 0.5 mg/kg oral, 6 hours
  Inhibition rate against the enzymatic activity of VAP-1 in abdominal fat of mice: 95.8 ± 3.6%
  inhibition at 0.5 mg/kg: ~95%
[1]; 3.0 mg/kg oral, 10 hours
  Inhibition rate against the enzymatic activity of VAP-1 in abdominal fat of mice: 95.3 ± 1.9%
  inhibition at 3 mg/kg: ~95%
[1]; 0.5 mg/kg oral, 10 hours
  inhibition at 0.5 mg/kg: 90.3 ± 3.2%
[1]; 0.5 mg/kg oral, 24 hours
  inhibition at 0.5 mg/kg: 68.1 ± 7.4%
[1]; 3.0 mg/kg oral, 6 hours
  inhibition at 3 mg/kg: 96.4 ± 5.6%
[1]; 3.0 mg/kg oral, 24 hours
  inhibition at 3 mg/kg: 78 ± 9.3%
[2]; Monkey
  T1/2 in liver microsomes: long half-life
[2]; monkey, liver microsomes, read-out: T1/2 in liver microsomes
  half-life: 20.8 h
